IC50 data for 16 compounds are collected here from patent publication US20260132132A1, “3A,4,5,6-TETRAHYDRO-1 H-PYRAZOLO[3,4-C]PYRIDIN-7(7AH)-ONE DERIVATIVES AS FACTOR XIIA INHIBITORS” (KALVISTA PHARMACEUTICALS LIMITED, priority 2022, published 2026).

In assay [1] the target is T1, Human Factor XIIa (hFXIIa) (Homo sapiens, UniProt P00748).
T1 construct: purchased Enzyme Research Laboratories
T1 sequence (P00748 373-615 limits assumed): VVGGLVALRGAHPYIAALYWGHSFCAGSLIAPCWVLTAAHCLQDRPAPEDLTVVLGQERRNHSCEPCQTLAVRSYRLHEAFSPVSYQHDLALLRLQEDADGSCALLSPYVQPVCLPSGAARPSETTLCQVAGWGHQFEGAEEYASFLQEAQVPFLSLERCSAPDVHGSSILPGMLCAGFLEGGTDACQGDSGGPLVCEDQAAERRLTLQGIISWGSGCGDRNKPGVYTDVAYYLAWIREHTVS
T1 sequence (P00748 20-372 partner limits assumed): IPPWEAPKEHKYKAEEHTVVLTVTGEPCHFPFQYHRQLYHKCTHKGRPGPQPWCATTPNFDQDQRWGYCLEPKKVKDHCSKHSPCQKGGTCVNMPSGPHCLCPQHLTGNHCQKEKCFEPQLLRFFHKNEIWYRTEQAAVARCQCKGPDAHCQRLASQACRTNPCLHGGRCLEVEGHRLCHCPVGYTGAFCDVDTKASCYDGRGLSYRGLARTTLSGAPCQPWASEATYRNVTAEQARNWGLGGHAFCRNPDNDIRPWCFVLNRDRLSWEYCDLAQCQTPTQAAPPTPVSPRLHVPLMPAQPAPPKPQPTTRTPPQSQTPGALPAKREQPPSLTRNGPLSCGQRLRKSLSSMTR
Kind of assay: Determination of Human Factor XIIa (hFXIIa) inhibition, fluorogenic substrate IC50 assay. The format is biochemical. The note with it: fluorogenic substrate H-DPro-Phe-Arg-AFC at Km, 25° C., read-out: Human FXIIa IC50. The method, then:
Determination of Human Factor XIIa (hFXIIa) inhibition
The Km for the cleavage of the substrate by hFXIIa was determined by standard transformation of the Michaelis-Menten equation, with subsequent inhibition assays performed at substrate Km concentration.

Another assay deals with FXa (Homo sapiens, UniProt P00742). Nature of the assay: Related protease inhibition: FXa, fluorogenic substrate. The format is biochemical. As to conditions: fluorogenic substrate at Km, 25° C.; H1-H3 = % activity at 40 μM. The method, then:
Human serine protease enzyme Plasma Kallikrein, KLK1, FXa, Plasmin, Thrombin and Trypsin were assayed for enzymatic activity using an appropriate fluorogenic substrate at Km concentration, FXIa at fixed substrate concentration of 100 μM and various concentrations of the test compound.

Sequence of FXa (P00742 235-488 limits assumed): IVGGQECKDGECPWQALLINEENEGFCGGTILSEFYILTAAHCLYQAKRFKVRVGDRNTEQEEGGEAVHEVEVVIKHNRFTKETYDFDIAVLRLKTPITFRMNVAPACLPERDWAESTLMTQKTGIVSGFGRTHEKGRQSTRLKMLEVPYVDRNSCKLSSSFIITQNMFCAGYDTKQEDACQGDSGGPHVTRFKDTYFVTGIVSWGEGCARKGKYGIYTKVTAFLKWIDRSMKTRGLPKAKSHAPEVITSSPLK
Sequence of FXa (P00742 41-179 partner limits assumed): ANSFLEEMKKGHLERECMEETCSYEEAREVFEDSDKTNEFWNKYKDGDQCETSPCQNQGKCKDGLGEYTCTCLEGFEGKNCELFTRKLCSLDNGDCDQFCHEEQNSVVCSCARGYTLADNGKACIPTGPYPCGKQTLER

Turning to `Cc1cc(CNC(=O)CN2CCOc3ccc(N4CCc5c(C(=O)NCc6cc(C)n(C)n6)nn(-c6cccc(Cl)c6)c5C4=O)cc3C2=O)nn1C` [Example 1383, 1-(3-chlorophenyl)-N-((1,5-dimethyl-1H-pyrazol-3-yl)methyl)-6-(4-(2-(((1,5-dimethyl-1H-pyrazol-3-yl)methyl)amino)-2-oxoethyl)-5-oxo-2,3,4,5-tetrahydrobenzo[f][1,4]oxazepin-7-yl)-7-oxo-4,5,6,7-tetrahydro-1H-pyrazolo[3,4-c]pyridine-3-carboxamide], the IC50 in assay [1] was in the range of 0.01 to 0.1 µM; on FXa, 3 to 10 µM.
For the compound `CN1CCc2ccc(N3CCc4c(C(=O)NCCF)nn(-c5cccc(Cl)c5)c4C3=O)cc2C1=O` [Example 1384, 1-(3-chlorophenyl)-N-(2-fluoroethyl)-6-(2-methyl-1-oxo-1,2,3,4-tetrahydroisoquinolin-7-yl)-7-oxo-4,5,6,7-tetrahydro-1H-pyrazolo[3,4-c]pyridine-3-carboxamide], the results for the concentration for half-maximal inhibition (IC50) (in assay [1]; against FXa) were 0.3 to 1 µM and greater than 40 µM, respectively.
The like results for `CC(=O)NCc1nn(-c2cccc(Cl)c2)c2c1CCN(c1ccc3c(c1)C(=O)N(C)CC3)C2=O` [Example 1385, N-((1-(3-chlorophenyl)-6-(2-methyl-1-oxo-1,2,3,4-tetrahydroisoquinolin-7-yl)-7-oxo-4,5,6,7-tetrahydro-1H-pyrazolo[3,4-c]pyridin-3-yl)methyl)acetamide] were, in that order, 1 to 3 µM and 3 to 10 µM.
Consider `CN1CCc2ccc(N3CCc4c(C(=O)NCCC(=O)O)nn(-c5cccc(Cl)c5)c4C3=O)cc2C1=O` [Example 1386, 3-(1-(3-chlorophenyl)-6-(2-methyl-1-oxo-1,2,3,4-tetrahydroisoquinolin-7-yl)-7-oxo-4,5,6,7-tetrahydro-1H-pyrazolo[3,4-c]pyridine-3-carboxamido)propanoic acid], for which the IC50 in assay [1] was 1 to 3 µM; on FXa it was greater than 40 µM.
As to `C[C@@H](NC(=O)c1nn(-c2cccc(Cl)c2)c2c1CCN(c1ccc3c(c1)C(=O)N(C)CC3)C2=O)C(=O)O` [Example 1387, (1-(3-chlorophenyl)-6-(2-methyl-1-oxo-1,2,3,4-tetrahydroisoquinolin-7-yl)-7-oxo-4,5,6,7-tetrahydro-1H-pyrazolo[3,4-c]pyridine-3-carbonyl)-D-alanine], the IC50 in assay [1] is 1 to 3 µM; against FXa, 10 to 40 µM.
The like results for `CN1CCc2ccc(N3CCc4c(C#N)nn(-c5cccc(Cl)c5)c4C3=O)cc2C1=O` [Example 1388, 1-(3-chlorophenyl)-6-(2-methyl-1-oxo-1,2,3,4-tetrahydroisoquinolin-7-yl)-7-oxo-4,5,6,7-tetrahydro-1H-pyrazolo[3,4-c]pyridine-3-carbonitrile] were, in that order, 0.3 to 1 µM and 1 to 3 µM.
In the same order, the values of `CCNC(=O)c1nn(-c2cccc(Cl)c2)c2c1CCN(c1cccc(N3CC4(CC4)CC3=O)c1)C2=O` [Example 1389, 1-(3-chlorophenyl)-N-ethyl-7-oxo-6-(3-(6-oxo-5-azaspiro[2.4]heptan-5-yl)phenyl)-4,5,6,7-tetrahydro-1H-pyrazolo[3,4-c]pyridine-3-carboxamide] are 10 to 40 µM and greater than 40 µM.
The like results for `CCNC(=O)c1nn(-c2cccc(Cl)c2)c2c1CCN(c1cccc(N3CCCN(C)C3=O)c1)C2=O` [Example 1390, 1-(3-chlorophenyl)-N-ethyl-6-(3-(3-methyl-2-oxotetrahydropyrimidin-1(2H)-yl)phenyl)-7-oxo-4,5,6,7-tetrahydro-1H-pyrazolo[3,4-c]pyridine-3-carboxamide] were, in that order, 1 to 3 µM and greater than 40 µM.
Consider `C[C@H](NC(=O)c1nn(-c2cccc(Cl)c2)c2c1CCN(c1ccc3c(c1)C(=O)N(C)CC3)C2=O)C(=O)O` [Example 1391, (1-(3-chlorophenyl)-6-(2-methyl-1-oxo-1,2,3,4-tetrahydroisoquinolin-7-yl)-7-oxo-4,5,6,7-tetrahydro-1H-pyrazolo[3,4-c]pyridine-3-carbonyl)-L-alanine], for which the IC50 in assay [1] was 0.3 to 1 µM; against FXa, greater than 40 µM.
The like results for `CCNC(=O)c1nn(-c2cccc(Cl)c2)c2c1CCN(c1ccc3c(c1)C(=O)N(CCO)[C@H](C)CO3)C2=O` [Example 1392, (R)-1-(3-chlorophenyl)-N-ethyl-6-(4-(2-hydroxyethyl)-3-methyl-5-oxo-2,3,4,5-tetrahydrobenzo[f][1,4]oxazepin-7-yl)-7-oxo-4,5,6,7-tetrahydro-1H-pyrazolo[3,4-c]pyridine-3-carboxamide] were, in that order, 3 to 10 µM and greater than 40 µM.
The like results for `Cc1cc(CNC(=O)c2nn(-c3cccc(Cl)c3)c3c2CCN(c2ccc4c(c2)C(=O)N(CC(N)=O)CCO4)C3=O)nn1C` [Example 1393, 6-(4-(2-amino-2-oxoethyl)-5-oxo-2,3,4,5-tetrahydrobenzo[f][1,4]oxazepin-7-yl)-1-(3-chlorophenyl)-N-((1,5-dimethyl-1H-pyrazol-3-yl)methyl)-7-oxo-4,5,6,7-tetrahydro-1H-pyrazolo[3,4-c]pyridine-3-carboxamide] were, in that order, 0.01 to 0.1 µM and 1 to 3 µM.
Take `Cc1c(Cl)c(CNC(=O)c2nn(-c3cccc(Cl)c3)c3c2CCN(c2ccc4c(c2)C(=O)N(CC(N)=O)CCO4)C3=O)nn1C` [Example 1394, 6-(4-(2-amino-2-oxoethyl)-5-oxo-2,3,4,5-tetrahydrobenzo[f][1,4]oxazepin-7-yl)-N-((4-chloro-1,5-dimethyl-1H-pyrazol-3-yl)methyl)-1-(3-chlorophenyl)-7-oxo-4,5,6,7-tetrahydro-1H-pyrazolo[3,4-c]pyridine-3-carboxamide]: the IC50 in assay [1] is 0.01 to 0.1 µM; on FXa it was 0.3 to 1 µM.
In the same order, the values of `Cc1cc(CNC(=O)c2nn(-c3cccc(Cl)c3)c3c2CCN(c2ccc4c(c2)C(=O)N(C)[C@@H](CO)CO4)C3=O)nn1C` [Example 1395, (S)-1-(3-chlorophenyl)-N-((1,5-dimethyl-1H-pyrazol-3-yl)methyl)-6-(3-(hydroxymethyl)-4-methyl-5-oxo-2,3,4,5-tetrahydrobenzo[f][1,4]oxazepin-7-yl)-7-oxo-4,5,6,7-tetrahydro-1H-pyrazolo[3,4-c]pyridine-3-carboxamide] are 1 to 3 µM and greater than 40 µM.
The like results for `Cc1ccncc1CNC(=O)c1nn(-c2cccc(Cl)c2)c2c1CCN(c1ccc3c(c1)C(=O)N(C)[C@@H](CO)CO3)C2=O` [Example 1396, (S)-1-(3-chlorophenyl)-6-(3-(hydroxymethyl)-4-methyl-5-oxo-2,3,4,5-tetrahydrobenzo[f][1,4]oxazepin-7-yl)-N-((4-methylpyridin-3-yl)methyl)-7-oxo-4,5,6,7-tetrahydro-1H-pyrazolo[3,4-c]pyridine-3-carboxamide] were, in that order, 0.3 to 1 µM and greater than 40 µM.
The like results for `CCNC(=O)c1nn(-c2cccc(Cl)c2)c2c1CCN(c1cccc(N3C(=O)CC[C@H]3C)c1)C2=O` [Example 1397, (R)-1-(3-chlorophenyl)-N-ethyl-6-(3-(2-methyl-5-oxopyrrolidin-1-yl)phenyl)-7-oxo-4,5,6,7-tetrahydro-1H-pyrazolo[3,4-c]pyridine-3-carboxamide] were, in that order, 10 to 40 µM and greater than 40 µM.
For the compound `CCNC(=O)c1nn(-c2cccc(Cl)c2)c2c1CCN(c1cccc(N3C(=O)CC[C@@H]3C)c1)C2=O` [Example 1398, (S)-1-(3-chlorophenyl)-N-ethyl-6-(3-(2-methyl-5-oxopyrrolidin-1-yl)phenyl)-7-oxo-4,5,6,7-tetrahydro-1H-pyrazolo[3,4-c]pyridine-3-carboxamide], the IC50 is 10 to 40 µM in assay [1] and greater than 40 µM against FXa.
